Source: patent US10829719B2, “Sodium methyl glycine-N,N-diacetic acid compound, process to prepare it and use thereof” (NOURYON CHEMICALS INTERNATIONAL B.V., priority 2017, dated 2020)

Columns and labels:
[1] = Dissolution rate of granules in deionized water monitored by conductivity; format: physicochemical; details: for time needed (s) to reach 75% dissolved / time needed (s) to reach 90% dissolved / time needed (s) to reach 95% dissolved / time needed (s) to reach 100% dissolved: 1 gram granules in 75 gram deionized water, stirred, trisodium salt
Method: The dissolution rate of these granules was compared to the dissolution rate of the original granules that were not heat treated:
1 gram of granules was added in one shot to a stirred container filled with 75 gram deionized water, equipped with a conductivity measurement probe. The conductivity of the dispersion was monitored in time. The degree of dissolution was determined by dividing the conductivity by the value finally obtained when the sample was fully dissolved yielding a stable level of conductivity.
(The measurements were done in duplicate yielding the same result)

[2] = Free flowability and weight gain after storage in climate chamber at 40° C. and 75% relative humidity; format: physicochemical; details: mean of three dishes; for fraction free flowing (%) Original / weight gain (%) Original: non-treated sample, stored 5 days at 40° C. and 75% relative humidity; for fraction free flowing (%) Treated / weight gain (%) Treated: sample dried 4 hours at 160° C., then stored 5 days at 40° C. and 75% relative humidity
Method: The compounds obtained in Examples 1 and 3 were dried 4 hours at 160° C. Subsequently, 5 grams of each sample were distributed evenly over the bottom of a (separate) crystallization dish (diameter 10 cm) and stored for 5 days in a climate chamber at 40° C. and 75% relative humidity. As a reference also the non-treated samples, as well as a sample of Trilon M granules (Na3-MGDA solid ex BASF), were stored in the same climate chamber at the same time.
To improve reliability of the testing, three separate dishes of all samples were stored at the same conditions.
After five days the dishes were weighed and the gain in mass of the contents was determined.
To estimate the amount of material that was still free flowing, the dishes were first tapped gently and then were mounted vertically to estimate the amount of material that remained sticking on the glass surface versus the amount of granular material ending on the bottom.

SMILES: CC(C(=O)[O-])N(CC(=O)[O-])CC(=O)[O-].[Na+].[Na+].[Na+] (single isomer, unassigned) [type I, methyl glycine-N,N-diacetic acid trisodium salt, reference compound]
- time needed (s) to reach 75% dissolved [1]: 40 s
- time needed (s) to reach 90% dissolved [1]: 110 s
- time needed (s) to reach 95% dissolved [1]: 160 s
- time needed (s) to reach 100% dissolved [1]: 260 s

SMILES: CC(C(=O)[O-])N(CC(=O)[O-])CC(=O)[O-].[Na+].[Na+].[Na+] (centres unmarked) [Example 1, Na3-MGDA]
- fraction free flowing (%) Original [2]: 40%
- weight gain (%) Original [2]: 11%
- fraction free flowing (%) Treated [2]: 65%
- weight gain (%) Treated [2]: 27%

SMILES: CC(C(=O)[O-])N(CC(=O)[O-])CC(=O)[O-].[Na+].[Na+].[Na+] (single isomer, unassigned) [type III, methyl glycine-N,N-diacetic acid trisodium salt]
- time needed (s) to reach 75% dissolved [1]: 22 s
- time needed (s) to reach 90% dissolved [1]: 36 s
- time needed (s) to reach 95% dissolved [1]: 45 s
- time needed (s) to reach 100% dissolved [1]: 90 s
- dissolution compared to type I containing granules ([1]; type III containing granules versus original, not heat treated type I granules): dissolve much faster

SMILES: CC(C(=O)[O-])N(CC(=O)[O-])CC(=O)[O-].[Na+].[Na+].[Na+] (centres unmarked) [Example 3, Na3-MGDA]
- fraction free flowing (%) Original [2]: 20%
- weight gain (%) Original [2]: 17%
- fraction free flowing (%) Treated [2]: 80%
- weight gain (%) Treated [2]: 29%
